Key:
Type in all cases: functional
NCI-H23 = assay: Cytotoxicity against human NCI-H23 after 48 hrs by SRB assay; details: NCI-H23, 48 h
SNB-75 = assay: Cytotoxicity against human SNB75 after 48 hrs by SRB assay; details: SNB-75, 48 h
PC-3 = assay: Cytotoxicity against human PC3 after 48 hrs by SRB assay; details: PC-3, 48 h
TK-10 = assay: Cytotoxicity against human TK10 after 48 hrs by SRB assay; details: TK-10, 48 h
A498 = assay: Cytotoxicity against human A498 after 48 hrs by SRB assay; details: A498, 48 h
NCI-H460 = assay: Cytotoxicity against human NCI-H460 after 48 hrs by SRB assay; details: NCI-H460, 48 h
NCI-H322M = assay: Cytotoxicity against human NCI-H322M after 48 hrs by SRB assay
IGROV-1 = assay: Cytotoxicity against human IGROV1 after 48 hrs by SRB assay; details: IGROV-1, 48 h
NCI/ADR-RES = assay: Cytotoxicity against human NCI/ADR-RES after 48 hrs by SRB assay
SK-MEL-2 = assay: Cytotoxicity against human SK-MEL-2 after 48 hrs by SRB assay; details: SK-MEL-2, 48 h
SNB-19 = assay: Cytotoxicity against human SNB19 after 48 hrs by SRB assay; details: SNB-19, 48 h
CAKI-1 = assay: Cytotoxicity against human CAKI-1 after 48 hrs by SRB assay; details: CAKI-1, 48 h
SK-MEL-5 = assay: Cytotoxicity against human SK-MEL-5 after 48 hrs by SRB assay; details: SK-MEL-5, 48 h
NCI-H226 = assay: Cytotoxicity against human NCI-H226 after 48 hrs by SRB assay; details: NCI-H226, 48 h
[1] = Cytotoxicity against human HL-60(TB) after 48 hrs by SRB assay; details: HL-60, 48 h
OVCAR-8 = assay: Cytotoxicity against human OVCAR8 after 48 hrs by SRB assay; details: OVCAR-8, 48 h
DU-145 = assay: Cytotoxicity against human DU145 after 48 hrs by SRB assay; details: DU-145, 48 h
A549 = assay: Cytotoxicity against human A549 after 48 hrs by SRB assay; details: A549, 48 h
SW-620 = assay: Cytotoxicity against human SW620 after 48 hrs by SRB assay; details: SW-620, 48 h
U-251 = assay: Cytotoxicity against human U251 after 48 hrs by SRB assay; details: U-251, 48 h
HCT-116 = assay: Cytotoxicity against human HCT116 after 48 hrs by SRB assay; details: HCT-116, 48 h
NCI-H522 = assay: Cytotoxicity against human NCI-H522 after 48 hrs by SRB assay; details: NCI-H522, 48 h
786-0 = assay: Cytotoxicity against human 786-0 after 48 hrs by SRB assay; details: 786-0, 48 h
SF-295 = assay: Cytotoxicity against human SF295 after 48 hrs by SRB assay; details: SF-295, 48 h
KM12 = assay: Cytotoxicity against human KM12 after 48 hrs by SRB assay; details: KM12, 48 h
UACC-62 = assay: Cytotoxicity against human UACC62 after 48 hrs by SRB assay; details: UACC-62, 48 h
Malme-3M = assay: Cytotoxicity against human MALME-3M after 48 hrs by SRB assay
MDA-MB-468 = assay: Cytotoxicity against human MDA-MB-468 after 48 hrs by SRB assay; details: MDA-MB-468, 48 h
HCT-15 = assay: Cytotoxicity against human HCT15 after 48 hrs by SRB assay; details: HCT-15, 48 h
Hs-578T = assay: Cytotoxicity against human Hs578T after 48 hrs by SRB assay
SN12C = assay: Cytotoxicity against human SN12C after 48 hrs by SRB assay
COLO 205 = assay: Cytotoxicity against human COLO205 after 48 hrs by SRB assay; details: COLO 205, 48 h
HCC 2998 = assay: Cytotoxicity against human HCC2998 after 48 hrs by SRB assay; details: HCC 2998, 48 h
SF-539 = assay: Cytotoxicity against human SF539 after 48 hrs by SRB assay; details: SF-539, 48 h
SK-OV-3 = assay: Cytotoxicity against human SKOV3 after 48 hrs by SRB assay; details: SK-OV-3, 48 h
ACHN = assay: Cytotoxicity against human ACHN after 48 hrs by SRB assay
MCF7 = assay: Cytotoxicity against human MCF7 after 48 hrs by SRB assay; details: MCF7, 48 h
LOX IMVI = assay: Cytotoxicity against human LOXIMVI after 48 hrs by SRB assay
MDA-MB-231 = assay: Cytotoxicity against human MDA-MB-231 after 48 hrs by SRB assay; details: MDA-MB-231, 48 h
T47D = assay: Cytotoxicity against human T47D after 48 hrs by SRB assay
SF-268 = assay: Cytotoxicity against human SF268 after 48 hrs by SRB assay; details: SF-268, 48 h
BT-549 = assay: Cytotoxicity against human BT549 after 48 hrs by SRB assay; details: BT-549, 48 h
[2] = read-out: LC50 (the source's name)

Work on `COc1cc(/C=C2\CN(C)CC3=C2Nc2nc(SC)[nH]c(=O)c2C3c2cc(OC)c(OC)c(OC)c2)cc(OC)c1OC` (centres undefined) yielded a GI50 (NCI-H23) of 3.54 µM, a CC50 (NCI-H23; [2]) of over 100 µM and a GI50 (SNB-75) of 7.36 µM. It also gave a CC50 (SNB-75; [2]) of 57.8 µM, a GI50 (PC-3) of 3.63 µM and a CC50 (PC-3; [2]) of over 100 µM. It also gave a GI50 (TK-10) of 6.07 µM, a CC50 (TK-10; [2]) of 46.9 µM and a GI50 (A498) of 9.58 µM. The CC50 (A498; [2]) was 46.7 µM, the GI50 (NCI-H460) was 2.3 µM and the CC50 (NCI-H460; [2]) was over 100 µM. The GI50 (NCI-H322M) was 6.6 µM, the CC50 (NCI-H322M; [2]) was 46.1 µM and the GI50 (IGROV-1) was 3.1 µM. The CC50 (IGROV-1; [2]) was 85.8 µM, the GI50 (NCI/ADR-RES) was 3.6 µM and the CC50 (NCI/ADR-RES; [2]) was over 100 µM. It also gave a GI50 (SK-MEL-2) of 9.92 µM, a CC50 (SK-MEL-2; [2]) of over 100 µM and a GI50 (SNB-19) of 8.65 µM. It also gave a CC50 (SNB-19; [2]) of 50 µM, a GI50 (CAKI-1) of 2.15 µM and a CC50 (CAKI-1; [2]) of 11.9 µM. For the same compound, the GI50 (SK-MEL-5) was 2.83 µM, the CC50 (SK-MEL-5; [2]) was 34.7 µM and the GI50 (NCI-H226) was 6.17 µM. It also gave a CC50 (NCI-H226; [2]) of 60.6 µM, a GI50 [1] of 2.26 µM and a CC50 [1, 2] of over 100 µM. It also gave a GI50 (OVCAR-8) of 2.89 µM, a CC50 (OVCAR-8; [2]) of over 100 µM and a GI50 (DU-145) of 3.6 µM. For the same compound, the CC50 (DU-145; [2]) was 34.8 µM, the GI50 (A549) was 3.26 µM and the CC50 (A549; [2]) was 62.5 µM. The GI50 (SW-620) was 2 µM, the CC50 (SW-620; [2]) was 9.69 µM and the GI50 (U-251) was 1.76 µM. The CC50 (U-251; [2]) was 9.75 µM, the GI50 (HCT-116) was 1.66 µM and the CC50 (HCT-116; [2]) was 6.05 µM. The GI50 (NCI-H522) was 2.04 µM, the CC50 (NCI-H522; [2]) was 15.5 µM and the GI50 (786-0) was 4.01 µM. It also gave a CC50 (786-0; [2]) of 87.3 µM, a GI50 (SF-295) of 2.24 µM and a CC50 (SF-295; [2]) of 26.9 µM. It also gave a GI50 (KM12) of 1.7 µM, a CC50 (KM12; [2]) of 6.08 µM and a GI50 (UACC-62) of 2.06 µM. For the same compound, the CC50 (UACC-62; [2]) was 18.5 µM, the GI50 (Malme-3M) was 2.82 µM and the CC50 (Malme-3M; [2]) was 55.5 µM. It also gave a GI50 (MDA-MB-468) of 2.2 µM, a CC50 (MDA-MB-468; [2]) of 38.8 µM and a GI50 (HCT-15) of 2.07 µM. The CC50 (HCT-15; [2]) was 13.6 µM, the GI50 (Hs-578T) was 8.88 µM and the CC50 (Hs-578T; [2]) was over 100 µM. For the same compound, the GI50 (SN12C) was 2.98 µM, the CC50 (SN12C; [2]) was 78.1 µM and the GI50 (COLO 205) was 2.11 µM. The CC50 (COLO 205; [2]) was 12.6 µM, the GI50 (HCC 2998) was 1.91 µM and the CC50 (HCC 2998; [2]) was 6.9 µM. For the same compound, the GI50 (SF-539) was 3.64 µM, the CC50 (SF-539; [2]) was over 100 µM and the GI50 (SK-OV-3) was 3.07 µM. The CC50 (SK-OV-3; [2]) was 51 µM, the GI50 (ACHN) was 1.93 µM and the CC50 (ACHN; [2]) was 6.53 µM. The GI50 (MCF7) was 4.98 µM, the CC50 (MCF7; [2]) was 50 µM and the GI50 (LOX IMVI) was 1.66 µM. The CC50 (LOX IMVI; [2]) was 9.37 µM, the GI50 (MDA-MB-231) was 3.14 µM and the CC50 (MDA-MB-231; [2]) was 50.3 µM. The GI50 (T47D) was 3.69 µM, the CC50 (T47D; [2]) was over 100 µM and the GI50 (SF-268) was 1.66 µM. The CC50 (SF-268; [2]) was 6.96 µM, the GI50 (BT-549) was 2.98 µM and the CC50 (BT-549; [2]) was 29.5 µM.

— ChEMBL document CHEMBL2311467, “Microwave-assisted synthesis of pyrimido[4,5-b][1,6]naphthyridin-4(3H)-ones with potential antitumor activity” (Eur J Med Chem, 2013)
